# Laboratory results: article PMC8228537, “Acrylonitrile Derivatives against Trypanosoma cruzi: In Vitro Activity and Programmed Cell Death Study” (Pharmaceuticals, 2021)
# “Also recorded” adds a separate entry of the source.
# Assays:
# [1] = Cytotoxicity, alamarBlue, murine macrophages; assay type: cell-based; details: mouse, J774A.1 murine macrophage cell line, J774A.1 murine macrophages, mean ± SD
# Experimental: The cytotoxicity was evaluated against murine macrophages (J774A.1) using the same method mentioned in the antiparasitic assay, based on the alamarBlue Cell Viability Reagent®. In a sterile 96-well plate, 10^4 cells per well were added, then, after the complete adhesion, serial dilutions of the 32 compounds, using a deep well plate, and a 10% of alamarBlue® were joined.
# Trypanosoma cruzi = test: Programmed cell death study (overall conclusion from the PCD assays); assay type: cell-based; details: overall conclusion from ROS, mitochondrial potential, ATP and chromatin condensation assays
# Experimental: Different assays were performed to elucidate which pathways could be triggered by these acrylonitriles. The most probable cellular process induced by our compounds is the apoptosis or programmed cell death (PCD), in which the inflammatory response is weakly activated, in contrast to a necrotic event, where the inflammatory response is strong.
# [2] = tested on: epimastigote stage of T. cruzi; test: Antiparasitic activity, alamarBlue, epimastigotes; assay type: cell-based, Trypanosoma cruzi; details: for IC50: 72 h, epimastigote stage of T. cruzi (Y strain), alamarBlue, mean ± SD, NA: not active; for Selectivity index (SI): ratio of CC50 for J774A.1 and IC50 for epimastigotes of T. cruzi
# Experimental: Epimastigotes of Trypanosoma cruzi (Y strain) were used in this study and cultured in liver infusion tryptose (LIT) medium supplemented with 10% of foetal bovine serum (FBS) at 26 °C.
# In a sterile 96-well plate, a serial dilution of acrylonitriles was carried out in LIT medium supplemented with 10% FBS with a final volume of 100 µL. Parasites were added to wells to reach a concentration of 10^5 parasites per well. Finally, a 10% of alamarBlue Cell Viability Reagent® (ThermoFisher Scientific, Waltham, MA, USA) was added into each well, and the plate was incubated for 72 h at 26°C.
# [3] = tested on: epimastigotes of Trypanosoma cruzi; test: Reactive oxygen species analysis (CellROX Deep Red); assay type: cell-based; details: 24 h with the IC90, Figure 5
# Experimental: The CellROX® reagent emits red fluorescence in the presence of reactive oxygen species.
# The oxidative stress was measured with the CellROX® Deep Red Reagent (ThermoFisher Scientific, MA, USA). […] Finally, the fluorescence was analyzed using the EVOS® FL Cell Imaging System (ThermoFisher Scientific, MA, USA) with the Cy5 light cube.
# [4] = tested on: epimastigotes of Trypanosoma cruzi; test: Plasmatic membrane permeability analysis (SYTOX Green); assay type: cell-based; details: 24 h with the IC90, Figure 4
# Experimental: The use of the dye SYTOX® Green reagent means that when the plasmatic permeability is altered, it is possible for the reagent to go inside the cells, joining the parasitic DNA and emitting an intense green fluorescence.
# To determine the plasmatic membrane permeability, SYTOX® Green nucleic acid stain fluorescent dye (ThermoFisher Scientific, MA, USA) was used. […] The pellet was resuspended in a 50 µL staining buffer and the Sytox® Green at 1 µM (final concentration). After 15 min of incubation at room temperature, parasites were analyzed. Fluorescence pictures were taken with the EVOS® FL Cell Imaging System (ThermoFisher Scientific, MA, USA).
# [5] = tested on: epimastigotes of Trypanosoma cruzi; test: Chromatin condensation analysis (Hoechst 33342/propidium iodide); assay type: cell-based; details: 24 h with the IC90, Figure 1
# Experimental: Vybrant® Apoptosis Assay Kit n°5, Hoechst 33342/Propidium Iodide (ThermoFisher Scientific, MA, USA) was used to determinate the chromatin condensation of the treated parasites. […] Thereafter, Hoechst (5 µg/mL) and propidium iodide (PI) (1 µg/mL) were added and incubated for 20 min at 26 °C. The EVOS® FL Cell Imaging System (ThermoFisher Scientific, MA, USA) was used to capture the fluorescence images, using the DAPI (Hoechst) and RFP (PI) light cubes.
# [6] = tested on: epimastigotes of Trypanosoma cruzi; test: ATP level analysis (CellTiter-Glo); assay type: cell-based; details: 24 h with the IC90, CellTiter-Glo, Figure 3
# Experimental: Variations in the level of ATP were measured with the CellTiter-Glo® Luminescent Cell Viability Assay (Promega, WI, USA). […] Then, in a white 96-well plate, the epimastigotes were resuspended in 25µL of culture media and mixed with 25 µL of the kit. After 10 min of incubation at room temperature, the luminescence was measured using an EnSpire Multimode Plate Reader® (PerkinElmer). The results were expressed in percentage of production of ATP level relative to the negative control (without any treatment).
Compound,CC50 at 24 h [1] [µM],Induction of programmed cell death (apoptosis-like process) (Trypanosoma cruzi),IC50 ([2]; Trypanosoma cruzi) [µM],Reactive oxygen species (CellROX Deep Red fluorescence) [3],Selectivity index (SI) [2],Plasma membrane permeability (SYTOX Green fluorescence) [4],Chromatin condensation (Hoechst 33342 blue fluorescence) [5],Dead cells (propidium iodide red fluorescence) [5],Percentage of ATP level relative to untreated control [6] [%],IC50 [2] [µM]
"COC(=O)/C=C/C#N [Compound Q1, (E)-Methyl 3-cyanoacrylate]",87.4 ± 7.02,did not show evidence of causing a programmed cell death mechanism,17.4 ± 4.75,,,,,,,
"COC(=O)/C=C\C#N [Compound Q2, (Z)-Methyl 3-cyanoacrylate]",112 ± 15.8,did not show evidence of causing a programmed cell death mechanism,25.9 ± 2.78,,,,,,,
"CCOC(=O)/C=C/C#N [Compound Q3, (E)-Ethyl 3-cyanoacrylate]",86.7 ± 22.8,did not show evidence of causing a programmed cell death mechanism,46.4 ± 5.73,most intense red fluorescence,,,,,,
"CCOC(=O)/C=C\C#N [Compound Q4, (Z)-Ethyl 3-cyanoacrylate]",43.2 ± 9.83,,47.3 ± 10.6,,0.91,,,,,
"CCCCCCCCOC(=O)/C=C/C#N [Compound Q5, (E)-Octyl 3-cyanoacrylate]",53.9 ± 12.8,robust evidence of inducing all the physiological features of an apoptosis-like process,34.3 ± 1.67,less intense fluorescence,,more remarkable,"intense blue fluorescence in the nucleus, indicating chromatin condensation","red fluorescence, indicating already dead cells",,
"CCCCCCCCOC(=O)/C=C\C#N [Compound Q6, (Z)-Octyl 3-cyanoacrylate]",28.8 ± 2.53,,51.9 ± 7.69,,0.55,,,,,
"N#C/C=C/C(=O)Oc1ccccc1 [Compound Q7, (E)-phenyl 3-cyanoacrylate]",46.5 ± 3.81,robust evidence of inducing all the physiological features of an apoptosis-like process; also recorded: shown to induce an apoptosis-like cell death,15.5 ± 1.27,less intense fluorescence,,more remarkable,"intense blue fluorescence in the nucleus, indicating chromatin condensation","red fluorescence, indicating already dead cells",32.68,
"N#C/C=C\C(=O)Oc1ccccc1 [Compound Q8, (Z)-phenyl 3-cyanoacrylate]",52.9 ± 4.51,shown to induce an apoptosis-like cell death,4.36 ± 0.26,less intense fluorescence,,,,,,
"CCCCCC(=O)/C=C/C#N [Compound Q10, (E)-4-Oxonon-2-enenitrile]",10.1 ± 1.46,,11 ± 1.38,,0.92,,,,,
"N#C/C=C/C(=O)c1ccccc1 [Compound Q11, (E)-4-Oxo-4-phenylbut-2-enenitrile]",5.22 ± 1.02,,5.53 ± 1.36,,0.94,,,,,
"N#C/C=C\C(=O)c1ccccc1 [Compound Q12, (Z)-4-Oxo-4-phenylbut-2-enenitrile]",7.64 ± 1.21,,20.9 ± 4.61,,0.36,,,,,
"N#C/C=C/C(=O)c1cccs1 [Compound Q13, (E)-4-Oxo-4-(thiophen-2-yl)but-2-enenitrile]",8.52 ± 0.04,,25 ± 0.62,,0.34,,,,,
"N#C/C=C\C(=O)c1cccs1 [Compound Q14, (Z)-4-Oxo-4-(thiophen-2-yl)but-2-enenitrile]",8.39 ± 0.25,,26.5 ± 2.83,,,,,,,
"N#C/C=C/C(=O)c1ccco1 [Compound Q15, (E)-4-(Furan-2-yl)-4-oxobut-2-enenitrile]",6.66 ± 1.77,,32.9 ± 0.83,,0.20,,,,,
"N#C/C=C/C(=O)C1CCCCC1 [Compound Q16, (E)-4-Cyclohexyl-4-oxobut-2-enenitrile]",4.35 ± 0.25,,7.65 ± 1.51,,0.57,,,,,
"N#C/C=C/C(=O)CCc1ccccc1 [Compound Q17, (E)-4-Oxo-6-phenylhex-2-enenitrile]",5.24 ± 0.7,,14.1 ± 2.53,,0.37,,,,,
"CCOP(=O)(/C=C/C#N)OCC [Compound Q18, (E)-Diethyl 2-cyanovinylphosphonate]",,,,less intense fluorescence,,,,"red fluorescence, indicating already dead cells",,14.8 ± 3.06
"N#C/C=C/P(=O)(c1ccccc1)c1ccccc1 [Compound Q19, (E)-3-(diphenylphosphoryl)acrylonitrile]",22.2 ± 3.24,robust evidence of inducing all the physiological features of an apoptosis-like process,14.6 ± 3.44,,,more remarkable,"intense blue fluorescence in the nucleus, indicating chromatin condensation","red fluorescence, indicating already dead cells",30.78,
"N#C/C=C\P(=O)(c1ccccc1)c1ccccc1 [Compound Q20, (Z)-3-(diphenylphosphoryl)acrylonitrile]",50.6 ± 10.8,,49.1 ± 1.12,,1.03,,,,,
"Cc1ccc(S(=O)(=O)/C=C/C#N)cc1 [Compound Q21, (E)-3-Tosylacrylonitrile]",,,3.86 ± 0.67,,0.83,,,,,
"N#C/C=C/C(=O)N1CCCC1 [Compound Q25, (E)-4-Oxo-4-(pyrrolidin-1-yl)but-2-enenitrile]",374 ± 47.9,did not show evidence of causing a programmed cell death mechanism,154 ± 19.8,,,,,,,
"CON(C)C(=O)/C=C/C#N [Compound Q27, (E)-3-Cyano-N-methoxy-N-methylacrylamide]",480 ± 29.1,robust evidence of inducing all the physiological features of an apoptosis-like process,291 ± 47,less intense fluorescence,,more remarkable,,"red fluorescence, indicating already dead cells",< 1,
"CON(C)C(=O)/C=C\C#N [Compound Q28, (Z)-3-Cyano-N-methoxy-N-methylacrylamide]",210 ± 8.99,,,,,,,,,
"CN(C(=O)/C=C/C#N)c1ccccc1 [Compound Q29, (E)-3-Cyano-N-methyl-N-phenylacrylamide]",327.9 ± 2.85,robust evidence of inducing all the physiological features of an apoptosis-like process,138 ± 14,less intense fluorescence,,more remarkable,"intense blue fluorescence in the nucleus, indicating chromatin condensation","red fluorescence, indicating already dead cells",< 1,
